Data set [1] in a line: Body weight in diet-induced obesity (DIO) mice, 7 days treatment. As to conditions: s.c. once daily. The format is in vivo. How it is done:
C57BL6J male mice, in the following referred to as diet-induced obesity (DIO) mice, were maintained on a high-fat diet (58% energy from fat) and had, for each study, an average body weight of more than 45 gram prior to study start. Mice were either housed individually or double-housed. The mice were maintained on a 12 h dark-light cycle at 21-23° C. Compounds were administered subcutaneously once daily (between 2 pm-5 pm) and food intake (FI) and body weight (BW) measured at the corresponding time. For body composition, measures of fat and lean mass were performed prior to the study (1-3 days prior to study start) and on the final day of the study using an MRI scanner (EchoMRI). The group of mice injected with a vehicle (saline) served as the control group.

The conditions of data set [2]: background, Myers et al. Science 2017; cited from earlier work.

The text below walks through data of patent US20240408218A1, “CONJUGATES OF GLUCAGON AND AMPK ACTIVATORS” (KØBENHAVNS UNIVERSITET, priority 2021, published 2024).

For `NC(=O)c1ncn([C@@H]2O[C@H](CO)[C@@H](O)[C@H]2O)c1N` [AICAR, 5-Aminoimidazole-4-carboxamide 1-β-D-ribofuranoside, reference compound], the “reduction in body weight (BW %) compared to control group” value in data set [1] (FIG. 9, conjugate 100 nmol/kg or equimolar doses) is roughly 4%.

Regarding `O[C@@H]1CO[C@H]2[C@@H]1OC[C@H]2Oc1nc2c(Cl)c(-c3ccc(-c4ccccc4)cc3)cnc2[nH]1` [MK-8722, (3R,3aR,6R,6aR)-6-((6-([1,1′-biphenyl]-4-yl)-7-chloro-3H-imidazo[4,5-b]pyridin-2-yl)oxy)hexahydrofuro[3,2-b]furan-3-ol, reference compound], in data set [1] (FIG. 3, conjugate 100 nmol/kg or equimolar doses), the “reduction in body weight percentage (BW %)” value is given as roughly 4%. In addition, the “adverse effect halting use of the compound” value in data set [2] is listed as “induction of cardiac hypertrophy”.
